Experimental data from patent US5622933A, “Multiple branch peptide constructions for use against HIV” (priority 1993, dated 1997).
Where “and” joins values, the source holds several entries; their conditions need not be identical. Identical values can stand only once. Like-named read-outs stand apart in the source and are kept apart here. Ends that are not written are not given here.

Experiments:
HIV-2Rod = assay: Syncytia formation blockage (chronically infected cells + uninfected Molt-4 cells); format: cell-based; parameters: key: -: The presence of syncytia is indicated by + signs, allocated in approximate proportion to the quantities counted; The presence of syncytia is indicated by + signs, allocated in approximate proportion to the quantities counted; ++: The presence of syncytia is indicated by + signs, allocated in approximate proportion to the quantities counted; +++: The presence of syncytia is indicated by + signs, allocated in approximate proportion to the quantities counted; ++++: The presence of syncytia is indicated by + signs, allocated in approximate proportion to the quantities counted
Method: (§1) CEM or C8166 cells were chronically infected with HIV-1 Lai or HIV-2 Rod, or HIV-1MN, respectively. Infected cells (1×10^4) were incubated for 2 hours with various concentrations of MBPCs in 96-well plates. Uninfected Molt-4 cells (4×10^4) were then added in […]. Syncytia were counted after 18 hours at 37° C.

HIV-1Lai = assay: as above; format: cell-based; parameters: key: -: The presence of syncytia is indicated by + signs, allocated in approximate proportion to the quantities counted; The presence of syncytia is indicated by + signs, allocated in approximate proportion to the quantities counted; ++: The presence of syncytia is indicated by + signs, allocated in approximate proportion to the quantities counted; +++: The presence of syncytia is indicated by + signs, allocated in approximate proportion to the quantities counted; ++++: The presence of syncytia is indicated by + signs, allocated in approximate proportion to the quantities counted
Method: as §1

HIV-1MN = assay: as above; format: cell-based; parameters: key: -: The presence of syncytia is indicated by + signs, allocated in approximate proportion to the quantities counted; The presence of syncytia is indicated by + signs, allocated in approximate proportion to the quantities counted; ++: The presence of syncytia is indicated by + signs, allocated in approximate proportion to the quantities counted; +++: The presence of syncytia is indicated by + signs, allocated in approximate proportion to the quantities counted; ++++: The presence of syncytia is indicated by + signs, allocated in approximate proportion to the quantities counted
Method: as §1

C57/BL6 black mice = assay: Immunogenicity in mice (serum ELISA for anti-MBPC3 antibody); format: in vivo, mouse; details: coat GPGRAF monomer 10 μg/ml, listed as Mo
Method: The injection route was intraperitoneal. The blood samples were collected by sub-orbital eye punction. The blood samples were left for 1 hour at 37° C., then overnight at 4° C., and the supernatants (serum samples) thus obtained were separated from the pellets. Sera were tested by ELISA, looking for specific anti-MBPC3 antibody.
(§2) […] After saturation with 400 μL of casein (5 g/100 ml), different serum dilutions were added for 2 hours at 37° C. The controls were sera from non-immunized rabbits and mice. After rinsing (5×), 50 μl of 1:5000 of peroxidase-labeled swine anti-rabbit IgG or anti-mouse IgG (Dakopatts, Copenhagen, Denmark) were added for 1 hour at 37° C. After further rinsing (5×), 100 μl of ortho-phenylenediamine were added for 30 min in the dark at room temperature. The reaction was stopped by adding 50 μl of 4N sulfuric acid, and optical density (OD) ratios were determined at 492/620 nm.

New Zealand rabbits = assay: Immunogenicity in rabbits (serum ELISA for anti MBPC.3 antibodies); format: in vivo, rabbit; details: coat GPGRAF monomer 10 μg/ml
Method: […] This procedure was repeated subcutaneously with incomplete Freud's adjuvant on days 30, 60, 90 and 120. Sera were tested by ELISA, looking for specific anti MBPC.3 antibodies. Data presented here is from the last serum samples (120+7 days).
as §2

HIV-1 (IIIB) = format: cell-based; details: for number of syncytia (HIV-1 induced cell fusion): 24 hours
Description: 50×10^3 8E5 cells chronically infected with a RT-deficient HIV-I (IIIB) isolate, were co-cultivated with 150×10^3 phytohemagglutinin (PHA) stimulated human peripheral blood lymphocytes (PBLs) in the presence of the indicated peptide in 96-well plates. The MBPCs used are described by the peptides attached, and the number thereof, to a core lysine matrix, which is designated HLC. All amino acids used for this experiment were in dextro form.

HIV-1 (89.6) = assay: Infection of and syncytia formation in human primary macrophages; format: cell-based; details: 5×10^-5 M; 10,000 TCID50
Method: MBPCs were also evaluated for their ability to block the infection of human primary macrophages by a highly cytopathic macrophage-tropic isolate, HIV-1 (89.6). Mononuclear cells were isolated from leukophoresis units enriched for monocytes by Ficoll-Hypaque density separation. Macrophages were purified by adherence to plastic in RPMI 1640 supplemented with 10% fetal calf serum and 5% human AB serum. […] 5×10^5 cells were treated for 45 minutes with the indicated MBPC at concentrations of 5×10^-5 M and subsequently exposed to 10,000 TCID50 of the macrophage-tropic isolate HIV (89.6). […] After thorough washing, the cells were fed again with medium and analyzed for HIV-1 p24^gag production and syncytia formation 4 days post-infection.

8E5 cells = assay: Toxicity in the cell fusion test (MTT assay or trypan blue exclusion); format: cell-based; details: 5 × 10^-5 M

## (IGPGRAF)4 -(K)2 -K-βA-OH (also: four copies on lysine core (K)2-K-βA-OH) [MBPC.4]
HIV-2Rod; MBPC Conc. 5 × 10^-6 M
  Syncytia formation: ++++
HIV-2Rod; MBPC Conc. 10^-6 M
  Syncytia formation: ++++
HIV-2Rod; MBPC Conc. 10^-7 M
  Syncytia formation: ++++
HIV-1Lai; MBPC Conc. 5 × 10^-6 M
  Syncytia formation: +++
HIV-1Lai; MBPC Conc. 10^-6 M
  Syncytia formation: ++++
HIV-1Lai; MBPC Conc. 10^-7 M
  Syncytia formation: ++++
HIV-1MN; MBPC Conc. 5 × 10^-6 M
  Syncytia formation: ++++
HIV-1MN; MBPC Conc. 10^-6 M
  Syncytia formation: ++++
HIV-1MN; MBPC Conc. 10^-7 M
  Syncytia formation: +++

## GPGRAF [Mono.3, GPGRAF, reference compound]
C57/BL6 black mice; plate 1, mouse serum 10^-2
  optical density (OD) ratio 492/620 nm (×10^3): 1224 and 1135
C57/BL6 black mice; plate 1, mouse serum 10^-3
  optical density (OD) ratio 492/620 nm (×10^3): 310 and 287
C57/BL6 black mice; plate 1, mouse serum 10^-4
  optical density (OD) ratio 492/620 nm (×10^3): 104 and 185
C57/BL6 black mice; plate 2, mouse serum 10^-2
  optical density (OD) ratio 492/620 nm (×10^3): 1539 and 1575
C57/BL6 black mice; plate 2, mouse serum 10^-3
  optical density (OD) ratio 492/620 nm (×10^3): 342 and 335
C57/BL6 black mice; plate 2, mouse serum 10^-4
  optical density (OD) ratio 492/620 nm (×10^3): 95 and 126
C57/BL6 black mice; plate 4, mouse serum 10^-2
  optical density (OD) ratio 492/620 nm (×10^3): 1231 and 1317
C57/BL6 black mice; plate 4, mouse serum 10^-3
  optical density (OD) ratio 492/620 nm (×10^3): 380 and 386
C57/BL6 black mice; plate 4, mouse serum 10^-4
  optical density (OD) ratio 492/620 nm (×10^3): 123 and 122
New Zealand rabbits; plate 1, rabbit serum 10^-2
  optical density (OD) ratio 492/620 nm (×10^3): 2000
New Zealand rabbits; plate 1, rabbit serum 10^-3
  optical density (OD) ratio 492/620 nm (×10^3): 2000
New Zealand rabbits; plate 1, rabbit serum 10^-4, listed as Mo
  optical density (OD) ratio 492/620 nm (×10^3): 677 and 725
New Zealand rabbits; plate 2, rabbit serum 10^-2
  optical density (OD) ratio 492/620 nm (×10^3): 2000
New Zealand rabbits; plate 2, rabbit serum 10^-3, listed as Mo
  optical density (OD) ratio 492/620 nm (×10^3): 2000 and 1909
New Zealand rabbits; plate 2, rabbit serum 10^-4, listed as Mo
  optical density (OD) ratio 492/620 nm (×10^3): 588 and 625
New Zealand rabbits; plate 4, rabbit serum 10^-2
  optical density (OD) ratio 492/620 nm (×10^3): 811
New Zealand rabbits; plate 4, rabbit serum 10^-3, listed as Mo
  optical density (OD) ratio 492/620 nm (×10^3): 245 and 194

## RAFVTIGK [RAFVTIGK (SEQ ID NO:6), reference compound]
HIV-1 (IIIB); 5 × 10^-5 M
  number of syncytia (HIV-1 induced cell fusion): - (- indicates the total absence of syncytia in the well)
HIV-1 (IIIB); 5 × 10^-6 M
  number of syncytia (HIV-1 induced cell fusion): +++
HIV-1 (IIIB); 5 × 10^-7 M
  number of syncytia (HIV-1 induced cell fusion): +++

## [Ac-GPGRAF]8 -MLC (also: eight copies on MLC (multibranched lysine core)) [N-terminal acetylation]
HIV-1 (IIIB)
  inhibition of syncytia formation / cell fusion, in words: significant loss of activity
HIV-1 (IIIB); 5 × 10^-5 M
  number of syncytia (HIV-1 induced cell fusion): - (- indicates the total absence of syncytia in the well)
HIV-1 (IIIB); 5 × 10^-6 M
  number of syncytia (HIV-1 induced cell fusion): +++
HIV-1 (IIIB); 5 × 10^-7 M
  number of syncytia (HIV-1 induced cell fusion): +++

## [GPG(R)D AF]8 -MLC
HIV-1 (89.6)
  inhibition of macrophage infection, in words: significantly less active than [GPGRAF]8 -MLC
HIV-1 (IIIB); 5 × 10^-6 M
  number of syncytia (HIV-1 induced cell fusion): - (- indicates the total absence of syncytia in the well)
HIV-1 (IIIB); 5 × 10^-7 M
  number of syncytia (HIV-1 induced cell fusion): +++

## [GPGRAF]8 -MLCD
HIV-1 (89.6)
  inhibition of macrophage infection, in words: significantly less active than [GPGRAF]8 -MLC
HIV-1 (IIIB); 5 × 10^-5 M
  number of syncytia (HIV-1 induced cell fusion): +++
HIV-1 (IIIB); 5 × 10^-6 M
  number of syncytia (HIV-1 induced cell fusion): +++
HIV-1 (IIIB); 5 × 10^-7 M
  number of syncytia (HIV-1 induced cell fusion): +++

## [GPGRA]8 -MLC
HIV-1 (IIIB)
  inhibition of syncytia formation / cell fusion, in words: did not inhibit cell fusion
HIV-1 (IIIB); 5 × 10^-5 M
  number of syncytia (HIV-1 induced cell fusion): +++
HIV-1 (IIIB); 5 × 10^-6 M
  number of syncytia (HIV-1 induced cell fusion): +++
HIV-1 (IIIB); 5 × 10^-7 M
  number of syncytia (HIV-1 induced cell fusion): +++

## [GPGR]8 -MLC
HIV-1 (IIIB)
  inhibition of syncytia formation / cell fusion, in words: did not inhibit cell fusion
HIV-1 (IIIB); 5 × 10^-5 M
  number of syncytia (HIV-1 induced cell fusion): +++
HIV-1 (IIIB); 5 × 10^-6 M
  number of syncytia (HIV-1 induced cell fusion): +++
HIV-1 (IIIB); 5 × 10^-7 M
  number of syncytia (HIV-1 induced cell fusion): +++

## [IGPGRAF]8 -MLC (also: octameric multibranched MLC construct)
HIV-1 (IIIB)
  inhibition of syncytia formation / cell fusion, in words: significant loss of activity
HIV-1 (IIIB); 5 × 10^-5 M
  number of syncytia (HIV-1 induced cell fusion): - (- indicates the total absence of syncytia in the well)
HIV-1 (IIIB); 5 × 10^-6 M
  number of syncytia (HIV-1 induced cell fusion): ±
HIV-1 (IIIB); 5 × 10^-7 M
  number of syncytia (HIV-1 induced cell fusion): +++

## [RKSIHKGPGRAFYT]4 -MLC (also: tetrameric multibranched MLC construct)
8E5 cells
  Toxicity: Toxic
HIV-1 (IIIB); 5 × 10^-6 M
  number of syncytia (HIV-1 induced cell fusion): - (- indicates the total absence of syncytia in the well)
HIV-1 (IIIB); 5 × 10^-7 M
  number of syncytia (HIV-1 induced cell fusion): +++

## [RKSIHTGPGRAFYT]4 -MLC (also: tetrameric multibranched MLC construct)
8E5 cells
  Toxicity: Toxic
HIV-1 (IIIB); 5 × 10^-6 M
  number of syncytia (HIV-1 induced cell fusion): - (- indicates the total absence of syncytia in the well)
HIV-1 (IIIB); 5 × 10^-7 M
  number of syncytia (HIV-1 induced cell fusion): +++
